Laboratory results as given in patent publication US20090239877A1, “NOVEL 1,2,4-TRIAZOLE DERIVATIVES AND PROCESS OF MANUFACTURING THEREOF” (AETERNA ZENTARIS GmbH, priority 2008, published 2009).

Legend:
human GHS-R 1a [1] = target: T1, human GHS-R 1a (Homo sapiens, UniProt Q92847); assay: GHS-R 1a receptor-ligand binding assay (membrane preparations from transfected LLC PK-1 cells); parameters: expressed in transfected cells; details: displacement of 125I-His9-ghrelin; plasma membranes of LLC PK-1 cells transiently transfected with human GHS-R 1a; mean of at least two independent experiments in triplicates
Summary of the method: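 Membranes (10 μg protein) from LLC PK-1 cells transiently transfected with human GHS-R 1a cDNA were incubated 60 min at 25° C in 50 mM Tris pH 7.3 buffer with […] ^125I-His^9-ghrelin, with nonspecific binding defined by 10^−6 M ghrelin. Filter-bound radioactivity was gamma-counted, and IC50 was obtained by non-linear regression of competition curves.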

human GHS-R 1a [2] = target: T1, human GHS-R 1a; assay: In vitro intracellular calcium release assay using human GHS-R 1a transfected CHO cells; type: cell-based; parameters: expressed in transfected cells; host or cells: CHO-K1 Chinese hamster ovary cells (ATCC No. CCL-61), transient transfection by electroporation; details: for activation at 1 µM: intracellular calcium release, compound at 10^-6 M, relative to basal level (0%) and 1 μM ghrelin (100%)
Method: The ability to properly activate the receptors is assessed for any compound of the invention by comparing the degree of activation (increase of intracellular calcium) of GHS-R 1a by the compound to be tested (at 10^−6 M concentration) to the degree of activation (increase of intracellular calcium) of GHS-R 1a by 10^−6 M ghrelin (100%) and to the basal level (0%). Such assessment can be readily performed by the skilled artisan due to his expert knowledge. The output is a percentage value for each compound to be tested. […]
III) In Vitro Intracellular Calcium Release Assay Using Human GHS-R 1a Transfected CHO Cells
The potential of the compounds of the invention to modulate GHS receptor activity was assessed by an in vitro intracellular Calcium release assay employing CHO cells that were transfected with human GHS-R 1a.
Release of intracellular calcium or inhibition thereof was measured using the fluorescent calcium indicator assay (FLIPR) and Fluo-4 AM.
CHO cells (CHO-KI Chinese Hamster Ovary cell line, ATCC No. CCL-61) were transiently transfected with human GHS-R 1a cDNA by electroporation and plated into 96-well black bottom plates (Corning 3603) (80,000 cells/well). Transient transfections were performed using the Easyject Optima Electroporator (Equibio), according to the manufacturer's instructions.
Transfected cells were grown in Dulbecco's modified Eagle's medium without phenol red, supplemented with 10% (v/v) non-essential amino acids, […] glutamine and streptomycin-penicillin (250 μg/ml-250 u/ml) (all purchased from Cambrex) at 37° C., 5% CO2 in a humidified atmosphere for 24 hours.
After incubation, transfected cells were washed with 150 μl Buffer A [Hanks' balanced salt solution (Sigma H-6648), 0.5% (v/v) BSA (Sigma A-7906), 20 mM CaCl2, 2.5 mM probenecid (pH 7.4, dissolved in 1 M NaOH) (Sigma P-8761)] and were then loaded with fluorescent calcium indicator Fluo-4 AM (10^−6 M) (Interchim UP72972) prepared in Buffer A, additionally containing 0.06% pluronic acid (Molecular probes P-6867) (a […] detergent which facilitates Fluo-4AM ester loading). (Loading: 100 μl per well of Buffer A containing 120 μl/ml Pluronic Acid and 1 μM Fluo-4AM was added to the cells).
After loading with Fluo-4 AM, transfected cells were incubated for 1 hour in the dark at 37° C.
Compounds to be tested were dissolved in Buffer A in triplicates at a concentration of 10^−6 M and distributed into another 96-well plate (Fisher Labosi A1210500).
Following incubation, excess Fluo-4AM was removed, 100 μl of Buffer A was added to each well at room temperature and immediately removed by aspiration. This was then repeated, before adding 50 μl Buffer A to each well.
Transfected cells were further incubated room temperature for 30 min to allow complete de-esterification of intracellular Fluo-4AM esters.
Subsequently, both plates, the black-bottom plate containing transfected cells and the microtiter plate containing the compounds to be tested, were then placed into a temperature-regulated (25° C.) FlexStation machine (benchtop scanning fluorometer Flex Station II, Molecular Devices, Sunnyvale, Calif., USA) for fluorescence output measurements.
Basal fluorescence output from the transfected cells was measured for 15 sec and then 50 μl of the compounds to be tested were automatically distributed into the wells containing the transfected cells. The fluorescence output was then recorded for a further 45 sec.
Excitation and emission wavelengths were 485 nm and 525 nm, respectively. Basal fluorescence intensity of Fluo-4AM-loaded transfected cells without compounds to be tested varied between 800-1200 arbitrary units, whereas maximal fluorescence output of dye-loaded transfected cells upon incubation with the compounds to be tested varied between 5000-7000 arbitrary units and was equivalent to that achieved by stimulation of dye-loaded transfected cells with 10^−6 M ghrelin. […]

human GHS-R 1a [3] = target: T1, human GHS-R 1a; assay: as above; type: cell-based; parameters: expressed in transfected cells; host or cells: CHO-K1 Chinese hamster ovary cells (ATCC No. CCL-61), transient transfection by electroporation; details: antagonist dissociation constant, antagonist inhibition curves in the presence of 10^-7 M ghrelin, Cheng-Prusoff equation, Fluo-4 AM

T1 sequence (Q92847 whole entry): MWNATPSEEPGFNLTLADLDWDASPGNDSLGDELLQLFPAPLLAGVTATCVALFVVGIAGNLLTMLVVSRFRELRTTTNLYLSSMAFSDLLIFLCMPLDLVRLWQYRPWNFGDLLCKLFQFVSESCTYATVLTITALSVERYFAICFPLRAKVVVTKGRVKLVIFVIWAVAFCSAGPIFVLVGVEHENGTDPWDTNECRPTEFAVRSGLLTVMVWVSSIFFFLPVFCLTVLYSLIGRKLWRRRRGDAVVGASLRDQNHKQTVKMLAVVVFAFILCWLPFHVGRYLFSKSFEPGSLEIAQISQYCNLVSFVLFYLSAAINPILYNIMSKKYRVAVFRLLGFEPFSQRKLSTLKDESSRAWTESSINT

**Q.** Which IC50 (human GHS-R 1a [1]) does the source give for `O=C(N[C@H](Cc1c[nH]c2ccccc12)c1nnc(Cc2ccccc2)n1Cc1ccc(Cl)c(Cl)c1)c1ccccn1` [Compound 36, N-((R)-1-(4-(3,4-dichlorobenzyl)-5-benzyl-4H-1,2,4-triazol-3-yl)-2-(1H-indol-3-yl)ethyl)picolinamide] here?
**A.** 70 nM

**Q.** What about the activation at 1 µM (human GHS-R 1a [2]) of the same compound?
**A.** 20%

**Q.** What about the Kb (human GHS-R 1a [3]) of the same compound?
**A.** 215 nM

**Q.** For `O=C(N[C@H](Cc1c[nH]c2ccccc12)c1nnc(CCCc2c[nH]c3ccccc23)n1Cc1ccccc1)c1ccccn1` [Compound 21, N-((R)-1-(5-(3-(1H-indol-3-yl)propyl)-4-benzyl-4H-1,2,4-triazol-3-yl)-2-(1H-indol-3-yl)ethyl)picolinamide], which IC50 (human GHS-R 1a [1]) is on record?
**A.** 80 nM

**Q.** What about the activation at 1 µM (human GHS-R 1a [2]) of the same compound?
**A.** 0%

**Q.** And the Kb (human GHS-R 1a [3])?
**A.** 300 nM

**Q.** What does the source list for `O=C(N[C@H](Cc1c[nH]c2ccccc12)c1nnc(CCCc2c[nH]c3ccccc23)n1Cc1ccccc1)C1CCOCC1` [Compound 23, N-((R)-1-(5-(3-(1H-indol-3-yl)propyl)-4-benzyl-4H-1,2,4-triazol-3-yl)-2-(1H-indol-3-yl)ethyl)-tetrahydro-2H-pyran-4-carboxamide]?
**A.** IC50 (human GHS-R 1a [1]): 370 nM; activation at 1 µM (human GHS-R 1a [2]): 15%; Kb (human GHS-R 1a [3]): 50 nM

**Q.** How did the IC50 (human GHS-R 1a [1]) turn out when `O=C(N[C@H](Cc1c[nH]c2ccccc12)c1nnc(CCc2ccccc2)n1Cc1cccc2ccccc12)C1CCOCC1` [Compound 19, N-((R)-2-(1H-indol-3-yl)-1-(4-((naphthalen-1-yl)methyl)-5-phenethyl-4H-1,2,4-triazol-3-yl)ethyl)-tetrahydro-2H-pyran-4-carboxamide] was run?
**A.** 390 nM

**Q.** And the activation at 1 µM (human GHS-R 1a [2])?
**A.** 0%

**Q.** What about the Kb (human GHS-R 1a [3]) of the same compound?
**A.** 275 nM

**Q.** `COc1ccc(Cn2c(CCc3cc4ccccc4[nH]3)nnc2[C@@H](Cc2c[nH]c3ccccc23)NC(=O)C2CCOCC2)c(OC)c1` [Compound 11, N-((R)-1-(5-(2-(1H-indol-2-yl)ethyl)-4-(2,4-dimethoxybenzyl)-4H-1,2,4-triazol-3-yl)-2-(1H-indol-3-yl)ethyl)-tetrahydro-2H-pyran-4-carboxamide] was tested. Which IC50 (human GHS-R 1a [1]) did it give?
**A.** 12 nM

**Q.** And the activation at 1 µM (human GHS-R 1a [2])?
**A.** 0%

**Q.** What about the Kb (human GHS-R 1a [3]) of the same compound?
**A.** 40 nM

**Q.** What does the source list for `O=C(N[C@H](Cc1c[nH]c2ccccc12)c1nnc(CCc2ccccc2)n1Cc1cccc2ccccc12)c1ccccn1` [Compound 16, N-((R)-2-(1H-indol-3-yl)-1-(4-((naphthalen-1-yl)methyl)-5-phenethyl-4H-1,2,4-triazol-3-yl)ethyl)picolinamide]?
**A.** IC50 (human GHS-R 1a [1]): 125 nM; Kb (human GHS-R 1a [3]): 79 nM

**Q.** `COc1ccc(Cn2c(CCc3c[nH]c4ccccc34)nnc2[C@@H](Cc2c[nH]c3ccccc23)NC(=O)c2ccn[nH]2)cc1` [Compound 14, N-((R)-1-(5-(2-(1H-indol-3-yl)ethyl)-4-(4-methoxybenzyl)-4H-1,2,4-triazol-3-yl)-2-(1H-indol-3-yl)ethyl)-1H-pyrazole-5-carboxamide] was tested. Which IC50 (human GHS-R 1a [1]) did it give?
**A.** 89.8 nM

**Q.** What about the activation at 1 µM (human GHS-R 1a [2]) of the same compound?
**A.** 15%

**Q.** And the Kb (human GHS-R 1a [3])?
**A.** 12.8 nM

**Q.** For `COc1ccc(Cn2c(CCc3ccccc3)nnc2[C@@H](Cc2c[nH]c3ccccc23)NC(=O)c2ccnnc2)c(OC)c1` [Compound 7, N-((R)-1-(4-(2,4-dimethoxybenzyl)-5-phenethyl-4H-1,2,4-triazol-3-yl)-2-(1H-indol-3-yl)ethyl)pyridazine-4-carboxamide], which activation at 1 µM (human GHS-R 1a [2]) is on record?
**A.** 3%

**Q.** And the Kb (human GHS-R 1a [3])?
**A.** 57 nM

**Q.** What does the source list for `COc1ccc(Cn2c(CCc3ccccc3)nnc2[C@@H](Cc2c[nH]c3ccccc23)NC(=O)c2ccn[nH]2)c(OC)c1` [Compound 8, N-((R)-1-(4-(2,4-dimethoxybenzyl)-5-phenethyl-4H-1,2,4-triazol-3-yl)-2-(1H-indol-3-yl)ethyl)-1H-pyrazole-5-carboxamide]?
**A.** IC50 (human GHS-R 1a [1]): 350 nM; activation at 1 µM (human GHS-R 1a [2]): 0%; Kb (human GHS-R 1a [3]): 64 nM

**Q.** What does the source list for `O=C(Cc1ccccn1)N[C@H](Cc1c[nH]c2ccccc12)c1nnc(Cc2ccccc2)n1Cc1ccc(Cl)c(Cl)c1` [Compound 34, N-((R)-1-(4-(3,4-dichlorobenzyl)-5-benzyl-4H-1,2,4-triazol-3-yl)-2-(1H-indol-3-yl)ethyl)-2-(pyridin-2-yl)acetamide]?
**A.** IC50 (human GHS-R 1a [1]): 110 nM; activation at 1 µM (human GHS-R 1a [2]): 0%; Kb (human GHS-R 1a [3]): 340 nM

**Q.** What does the source list for `O=C(N[C@H](Cc1c[nH]c2ccccc12)c1nnc(Cc2ccccc2)n1Cc1ccc(Cl)c(Cl)c1)C1CCOCC1` [Compound 37, N-((R)-1-(4-(3,4-dichlorobenzyl)-5-benzyl-4H-1,2,4-triazol-3-yl)-2-(1H-indol-3-yl)ethyl)-tetrahydro-2H-pyran-4-carboxamide]?
**A.** IC50 (human GHS-R 1a [1]): 200 nM; activation at 1 µM (human GHS-R 1a [2]): 0%; Kb (human GHS-R 1a [3]): 215 nM

**Q.** For `COc1ccc(Cn2c(CCc3ccccc3)nnc2[C@@H](Cc2c[nH]c3ccccc23)NC(=O)C2CCOCC2)c(OC)c1` [Compound 12, N-((R)-1-(4-(2,4-dimethoxybenzyl)-5-phenethyl-4H-1,2,4-triazol-3-yl)-2-(1H-indol-3-yl)ethyl)-tetrahydro-2H-pyran-4-carboxamide], which IC50 (human GHS-R 1a [1]) is on record?
**A.** 15.8 nM

**Q.** What about the activation at 1 µM (human GHS-R 1a [2]) of the same compound?
**A.** 3%

**Q.** And the Kb (human GHS-R 1a [3])?
**A.** 68 nM

**Q.** With `COc1ccc(Cn2c(CCc3c[nH]c4ccccc34)nnc2[C@H](Cc2c[nH]c3ccccc23)NC(=O)c2cnccn2)cc1` [Compound 29, N-((S)-1-(5-(2-(1H-indol-3-yl)ethyl)-4-(4-methoxybenzyl)-4H-1,2,4-triazol-3-yl)-2-(1H-indol-3-yl)ethyl)pyrazine-2-carboxamide] as the compound, how does the activation at 1 µM (human GHS-R 1a [2]) read?
**A.** 0%

**Q.** And the Kb (human GHS-R 1a [3])?
**A.** 215 nM

**Q.** For `O=C(N[C@H](Cc1c[nH]c2ccccc12)c1nnc(CCCc2c[nH]c3ccccc23)n1Cc1cccc2ccccc12)C1CCNCC1` [Compound 39, N-((R)-1-(5-(3-(1H-indol-3-yl)propyl)-4-((naphthalen-1-yl)methyl)-4H-1,2,4-triazol-3-yl)-2-(1H-indol-3-yl)ethyl)piperidine-4-carboxamide], which IC50 (human GHS-R 1a [1]) is on record?
**A.** 21.1 nM

**Q.** And the EC50 (human GHS-R 1a [2]; agonists, dose-response curve of intracellular calcium release)?
**A.** 1 nM
